Measured values from PubChem BioAssay (NCI).
Values joined by “and” are separate entries in the source; they are usually repeats but may differ in a detail not shown here. Equal entries are not always repeated.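 Test compounds were applied to cells in 96-well plates for 48 hours at 5 doses. Here, GI50 denotes the concentration required for 50% inhibition of growth. TGI: total growth inhibition.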

Legend:
Assay in all cases: growth of human tumour cells (NCI), 48 h
786-0 renal = test system: 786-0 renal
COLO 205 colon = test system: COLO 205 colon
DU-145 prostate = test system: DU-145 prostate
HL-60(TB) leukemia = test system: HL-60(TB) leukemia
IGROV1 ovarian = test system: IGROV1 ovarian
MALME-3M melanoma = test system: MALME-3M melanoma
MCF7 breast = test system: MCF7 breast
MDA-MB-435 = test system: MDA-MB-435
NCI-H23 lung = test system: NCI-H23 lung
NCI-H522 lung = test system: NCI-H522 lung
OVCAR-3 ovarian = test system: OVCAR-3 ovarian
OVCAR-4 ovarian = test system: OVCAR-4 ovarian
SK-MEL-2 melanoma = test system: SK-MEL-2 melanoma
SK-OV-3 ovarian = test system: SK-OV-3 ovarian
SN12C renal = test system: SN12C renal
SNB-75 CNS = test system: SNB-75 CNS
SW-620 colon = test system: SW-620 colon

SMILES | TGI (786-0 renal) | TGI (COLO 205 colon) | TGI (DU-145 prostate) | TGI (HL-60(TB) leukemia) | TGI (IGROV1 ovarian) | TGI (MALME-3M melanoma) | TGI (MCF7 breast) | TGI (MDA-MB-435) | TGI (NCI-H23 lung) | TGI (NCI-H522 lung) [µM] | TGI (OVCAR-3 ovarian) | TGI (OVCAR-4 ovarian) [µM] | TGI (SK-MEL-2 melanoma) | TGI (SK-OV-3 ovarian) | TGI (SN12C renal) | TGI (SNB-75 CNS) | TGI (SW-620 colon) | GI50 (MCF7 breast) | GI50 (MDA-MB-435) | GI50 (SK-MEL-2 melanoma)
O=C(C=P(c1ccccc1)(c1ccccc1)c1ccccc1)c1ccc(-c2cccs2)cc1 | 17.6 µM | 1.95 µM | 22.3 µM | 4.87 µM | 21.2 µM | 13.4 µM | 11.7 µM | 10.9 µM | 56.2 µM | 12 | 8.52 µM | 7.52 | 3.11 µM | 20.6 µM | 17.6 µM | 8.86 µM | 21.7 µM | – | – | –
CCOC(=O)C1(C#N)OC(=O)c2cnccc21 (stereo not drawn) | > 100 µM | > 100 µM | > 100 µM | > 100 µM | > 100 µM | > 100 µM | > 100 µM | > 100 µM | > 100 µM | > 100 | > 100 µM | > 100 | > 100 µM | > 100 µM | > 100 µM | > 100 µM | > 100 µM | – | – | –
O=c1ccc2ccc(OP(=O)(O)O)cc2o1 | > 100 µM | > 100 µM | > 100 µM | > 100 µM | > 100 µM | > 100 µM | > 100 µM | > 100 µM | > 100 µM | > 100 | > 100 µM | > 100 | > 100 µM | > 100 µM | > 100 µM | > 100 µM | > 100 µM | – | – | –
Nc1nc(Cl)cc(NCC2(O)CCC2)n1 | > 100 µM | > 100 µM | > 100 µM | > 100 µM | > 100 µM | > 100 µM | > 100 µM | > 100 µM | > 100 µM | > 100 | > 100 µM | > 100 | > 100 µM | > 100 µM | > 100 µM | > 100 µM | > 100 µM | – | – | –
Cc1ccc(C)n1-c1ccccc1C1C=Cn2c(=O)nnc3c(OC(C)C)c(OC(C)C)c(O)c1c32 (stereo not drawn) | 65.7 µM | 27.7 µM | > 100 µM | 59.6 µM | > 100 µM | 76.5 µM | > 100 µM | 58.5 µM | > 100 µM | 49.6 | > 100 µM | > 100 | > 100 µM | > 100 µM | > 100 µM | > 100 µM | 42.3 µM | – | – | –
CC1OC(OC2C(OC(=O)[C@]34CCC(C)(C)C[C@H]3C3=CC[C@@H]5[C@@]6(C)CC[C@H](OC7OC(C(=O)O)C(O)C(O)C7O)C(C)(C)[C@@H]6CC[C@@]5(C)[C@]3(C)C[C@H]4O)OCC(O)C2O)C(O)C(O)C1OC1OCC(O)C(O)C1O (stereo partly drawn) | 28.8 µM and 26.1 µM | 12.3 µM and 3.98 µM | 28.9 µM and 27.4 µM | 30.5 µM and 26.9 µM | 31.5 µM and 27.8 µM | 27.8 µM and 25.6 µM | 29.4 µM and 17.8 µM | 30.3 µM and 18.2 µM | 18.2 µM and 20.7 µM | 24.4 | 32.2 µM and 29.1 µM | 31.7 | 30.4 µM and 12.4 µM | 33.1 µM and 32 µM | 16 µM and 6.05 µM | 29.9 µM and 31.3 µM | 32.8 µM and 27.7 µM | 14.4 µM and 5.24 µM | 16 µM and 5.32 µM | 15.4 µM and 3.47 µM
CCOC(=O)c1cc(C2CCN(c3ccccc3)C2=O)c(/C(O)=C/C(C)=O)[nH]1 (stereo not drawn) | > 100 µM | > 100 µM | > 100 µM | 76 µM | > 100 µM | > 100 µM | > 100 µM | > 100 µM | > 100 µM | > 100 | > 100 µM | > 100 | > 100 µM | > 100 µM | > 100 µM | > 100 µM | > 100 µM | – | – | –
CCOC(=O)Cc1csc(NC(NC(=O)OCC)(C(=O)OCC)C(F)(F)F)n1 (stereo not drawn) | > 100 µM | > 100 µM | > 100 µM | > 100 µM | > 100 µM | > 100 µM | > 100 µM | > 100 µM | > 100 µM | > 100 | > 100 µM | > 100 | > 100 µM | > 100 µM | > 100 µM | > 100 µM | > 100 µM | – | – | –
CN(C)C(C1=C(O)C(c2ccccc2)N(c2ccccc2)C1=O)N1CCOCC1 (stereo not drawn) | > 10 µM | > 10 µM | > 10 µM | > 10 µM | > 10 µM | > 10 µM | > 10 µM | > 10 µM | > 10 µM | > 10 | > 10 µM | > 10 | > 10 µM | > 10 µM | > 10 µM | > 10 µM | > 10 µM | – | – | –
CC[C@]12C=CCN3CC[C@@]4(c5cc(N=O)c(OC)cc5N(C)[C@H]4[C@@](O)(C(=O)OC)[C@@H]1OC(C)=O)[C@@H]32 | > 100 µM | > 100 µM | > 100 µM | > 100 µM | > 100 µM | > 100 µM | > 100 µM | 74.8 µM | > 100 µM | 36.5 | > 100 µM | > 100 | 41.7 µM | > 100 µM | > 100 µM | > 100 µM | > 100 µM | – | – | –
